Assay results from PMC9516332 (Frontiers in Oncology, 2022).
Read-outs that look alike come from different tables or passages of the source.

System: 134 cancer cell lines
Assay: Cell viability assay (ATPlite, 72 hours), IC50 on cancer cell line panel

`Cc1cc(Nc2ncc(Cl)c(Nc3ccccc3S(=O)(=O)C(C)C)n2)c(OC(C)C)cc1C1CCNCC1` [ceritinib] was tested, and the IC50 (Homo sapiens, MOLT-4, read-out: IC50 in cell proliferation assay, MOLT-4 cell line) was 3.76 µM, the IC50 (Homo sapiens, MV4-11, read-out: IC50 in cell proliferation assay, MV4-11 cell line (FLT3 ITD)) was 1.23 µM and the IC50 (Homo sapiens, MeWo, read-out: IC50 in cell proliferation assay, MeWo cell line) was 3.2 µM. It also gave an IC50 (Homo sapiens, NCCIT, read-out: IC50 in cell proliferation assay, NCC-IT cell line) of 3.11 µM, an IC50 (Homo sapiens, NCI-H82, read-out: IC50 in cell proliferation assay, cell line NCI-H82) of 1.57 µM and an IC50 (Homo sapiens, NCI-H460, read-out: IC50 in cell proliferation assay, NCI-H460 cell line) of 3.16 µM. The IC50 (Homo sapiens, NCI-H661, read-out: IC50 in cell proliferation assay, NCI-H661 cell line) was 3.47 µM, the IC50 (Homo sapiens, NCI-H716, read-out: IC50 in cell proliferation assay, cell line NCI-H716 (FGFR2-COL14A1)) was 1.55 µM and the IC50 (Homo sapiens, NCI-H1650, read-out: IC50 in cell proliferation assay, NCI-H1650 cell line (EGFR exon19del)) was 3.38 µM. For the same molecule, the IC50 (Homo sapiens, NCI-H1975, read-out: IC50 in cell proliferation assay, NCI-H1975 cell line (EGFR p.L858R + p.T790M)) was 1.92 µM, the IC50 (Homo sapiens, NCI-H2228, read-out: IC50 in cell proliferation assay, NCI-H2228 cell line (EML4-ALK)) was 0.038 µM and the IC50 (Homo sapiens, OVCAR-3, read-out: IC50 in cell proliferation assay, cell line OVCAR-3) was 5.14 µM. For the same molecule, the IC50 (Homo sapiens, PFSK-1, read-out: IC50 in cell proliferation assay, cell line PFSK-1) was 1.54 µM, the IC50 (Homo sapiens, RL95-2, read-out: IC50 in cell proliferation assay, cell line RL95-2 (EGFR p.A289V)) was 1.76 µM and the IC50 (Homo sapiens, RPMI-7951, read-out: IC50 in cell proliferation assay, cell line RPMI-7951 (BRAF p.V600E)) was 3.68 µM. For the same molecule, the IC50 (Homo sapiens, RS4-11, read-out: IC50 in cell proliferation assay, cell line RS4;11) was 1.08 µM, the IC50 (Homo sapiens, Rec1, read-out: IC50 in cell proliferation assay, cell line REC-1) was 2.21 µM and the IC50 (Homo sapiens, SHP77, read-out: IC50 in cell proliferation assay, cell line SHP-77) was 3.4 µM. It also gave an IC50 (Homo sapiens, SK-BR-3, read-out: IC50 in cell proliferation assay, cell line SK-BR-3 (ERBB2 amplification)) of 3.91 µM, an IC50 (Homo sapiens, SK-N-AS, read-out: IC50 in cell proliferation assay, cell line SK-N-AS) of 2.09 µM and an IC50 (Homo sapiens, SK-N-FI, read-out: IC50 in cell proliferation assay, cell line SK-N-FI) of 0.537 µM. It also gave an IC50 (Homo sapiens, SK-N-MC, read-out: IC50 in cell proliferation assay, cell line SK-N-MC) of 0.709 µM, an IC50 (Homo sapiens, SK-N-SH, read-out: IC50 in cell proliferation assay, cell line SK-N-SH (ALK p.F1174L)) of 0.875 µM and an IC50 (Homo sapiens, SNU-5, read-out: IC50 in cell proliferation assay, cell line SNU-5 (MET amplification)) of 3.87 µM. For the same molecule, the IC50 (Homo sapiens, SNU-16, read-out: IC50 in cell proliferation assay, cell line SNU-16 (FGFR2 amplification)) was 3.8 µM, the IC50 (Homo sapiens, SNU-C2B, read-out: IC50 in cell proliferation assay, cell line SNU-C2B (EGFR p.R165Q)) was 2.54 µM and the IC50 (Homo sapiens, SU-DHL-1, read-out: IC50 in cell proliferation assay, cell line SU-DHL-1 (NPM1-ALK)) was 0.192 µM. For the same molecule, the IC50 (Homo sapiens, SU-DHL-6, read-out: IC50 in cell proliferation assay, cell line SU-DHL-6) was 2.95 µM, the IC50 (Homo sapiens, SUP-T1, read-out: IC50 in cell proliferation assay, cell line SUP-T1) was 3.5 µM and the IC50 (Homo sapiens, SW48, read-out: IC50 in cell proliferation assay, cell line SW48 (EGFR p.G719S)) was 1.29 µM. For the same molecule, the IC50 (Homo sapiens, SW480, read-out: IC50 in cell proliferation assay, cell line SW480) was 2.44 µM, the IC50 (Homo sapiens, SW626, read-out: IC50 in cell proliferation assay, cell line SW626) was 3.43 µM and the IC50 (Homo sapiens, SW780, read-out: IC50 in cell proliferation assay, cell line SW780 (FGFR3-BAIAP2L1)) was 2.07 µM. It also gave an IC50 (Homo sapiens, SW837, read-out: IC50 in cell proliferation assay, cell line SW837) of 2.94 µM, an IC50 (Homo sapiens, SW872, read-out: IC50 in cell proliferation assay, cell line SW872 (BRAF p.V600E)) of 2.78 µM and an IC50 (Homo sapiens, SW900, read-out: IC50 in cell proliferation assay, cell line SW900) of 2.34 µM. For the same molecule, the IC50 (Homo sapiens, SW948, read-out: IC50 in cell proliferation assay, cell line SW948) was 2.28 µM, the IC50 (Homo sapiens, SW982, read-out: IC50 in cell proliferation assay, cell line SW982 (BRAF p.V600E)) was 4.15 µM and the IC50 (Homo sapiens, SW-620, read-out: IC50 in cell proliferation assay, cell line SW620) was 1.55 µM. For the same molecule, the IC50 (Homo sapiens, T98G, read-out: IC50 in cell proliferation assay, cell line T98G) was 4.7 µM, the IC50 (Homo sapiens, TCC-SUP, read-out: IC50 in cell proliferation assay, cell line TCCSUP) was 3.82 µM and the IC50 (Homo sapiens, THP-1, read-out: IC50 in cell proliferation assay, cell line THP-1) was 4.75 µM. For the same molecule, the IC50 (Homo sapiens, U2OS, read-out: IC50 in cell proliferation assay, cell line U2OS) was 3.86 µM, the IC50 (Homo sapiens, U-87 MG, read-out: IC50 in cell proliferation assay, cell line U-87MG ATCC) was 4.44 µM and the IC50 (Homo sapiens, U-118-MG, read-out: IC50 in cell proliferation assay, cell line U-118MG) was 3.85 µM. The IC50 (Homo sapiens, UMUC3, read-out: IC50 in cell proliferation assay, cell line UM-UC-3) was 2.57 µM, the IC50 (Hs766T, read-out: IC50 in cell proliferation assay, Hs 766T cell line) was 3.52 µM and the IC50 (L-82, read-out: IC50 in cell proliferation assay, L-82 cell line (NPM1-ALK)) was 0.033 µM. For the same molecule, the IC50 (Rh30, read-out: IC50 in cell proliferation assay, cell line Rh30) was 1.01 µM, the IC50 (read-out: IC50 in cell proliferation assay, 11-18 cell line (EGFR p.L858R)) was 2.09 µM and the IC50 (read-out: IC50 in cell proliferation assay, Hs 852.T cell line) was 1.87 µM. It also gave an IC50 (read-out: IC50 in cell proliferation assay, JAR cell line) of 3.58 µM, an IC50 (read-out: IC50 in cell proliferation assay, cell line 5637) of 2.49 µM and an IC50 (read-out: IC50 in cell proliferation assay, cell line A-388) of 3.64 µM. The IC50 (read-out: IC50 in cell proliferation assay, cell line DB) was 3.99 µM, the IC50 (read-out: IC50 in cell proliferation assay, cell line DEL (NPM1-ALK)) was 0.062 µM and the IC50 (read-out: IC50 in cell proliferation assay, cell line ES-2 (BRAF p.V600E)) was 2.81 µM. It also gave an IC50 (read-out: IC50 in cell proliferation assay, cell line PA-1) of 2.08 µM, an IC50 (read-out: IC50 in cell proliferation assay, cell line PC-3) of 4.05 µM and an IC50 (read-out: IC50 in cell proliferation assay, cell line RD) of 1.71 µM. It also gave an IC50 (read-out: IC50 in cell proliferation assay, cell line RKO (BRAF p.V600E)) of 1.63 µM, an IC50 (read-out: IC50 in cell proliferation assay, cell line RL) of 4.06 µM and an IC50 (read-out: IC50 in cell proliferation assay, cell line RT-4 (FGFR3-TACC3)) of 4.05 µM. It also gave an IC50 (read-out: IC50 in cell proliferation assay, cell line SR (NPM1-ALK)) of 0.2 µM, an IC50 (read-out: IC50 in cell proliferation assay, cell line T24) of 4.04 µM and an IC50 (read-out: IC50 in cell proliferation assay, cell line TT (RET p.C634W)) of 3.83 µM. It also gave an IC50 (read-out: IC50 in cell proliferation assay, cell line VA-ES-BJ) of 4.25 µM.
